Test results taken from patent publication US20200023080A1, “COMPOSITIONS AND METHOD FOR THE TREATMENT AND DETECTION OF COLON CANCER” (priority 2015, published 2020).
Positions of bridges follow the written chain, without caps; N, C: chain ends. Non-standard residues stand in square brackets, D forms with d. No end group written: not given here. IRDye‑680LT = infrared dye IRDye-680LT, conjugated via NHS ester

Columns and labels:
[1] = target: T1, GC-C expressed on T84 cells (Homo sapiens, UniProt P25092); assay: Binding of IR680-SP-333 probe to T84 cell monolayer; settings: 4° C. for 1 hour, FIG. 3
T1 construct: endogenous in cells; host or cells: T84 human colon carcinoma cells
Experimental: Experiments were performed to establish binding conditions to reduce background and to enhance specific binding. These experiments concluded that the age of T84 monolayer should be between 7-9 days after seeding to allow maximum expression of GC-C on the cell surface. Next, we established the optimal binding buffer, incubation time to allow binding of probe to T84 cells and temperature of binding incubation to minimize endocytosis. The optimal conditions for specific binding of probe to T84 cells are briefly described here. Human T84 cells were grown to confluence in 96 black clear bottom plates. Media was aspirated and the plate was blocked with 200 ul/well of blocking buffer (DMEM/F12+150 mM NaCl+20 mM Sodium phosphate dibasic, pH was adjusted to 6.0 with 1N HCl) for 2 hours in cell culture incubator at 37° C.

[2] = target: T2, GC-C binding sites on T84 cells (Homo sapiens, UniProt P25092); assay: Binding of IR680-SP-333 probe to suspension of T84 cells; settings: 0.5 μM probe, 4° C. for 30 mins, FIG. 4
T2 construct: endogenous in cells; host or cells: T84 human colon carcinoma cells
Experimental: Next, we performed binding of probe to suspension of T84 cells. In this set of experiments, cells cultured for 9 days in T75 flasks were harvested by scraping and suspended in pre-chilled binding media. Different densities of cells were incubated with […] IR680-SP-333 (final concentration 0.5 μM) in pre-chilled binding buffer at 4° C. for 30 mins. The IR680-SP-333 was diluted with unlabeled SP-333 to adjust the final concentration of probe 0.5 μM. This dilution was necessary to saturate the available GC-C binding sites on 40,000 cells.

[3] = system: cGMP production in T84 cells; assay: T84 cGMP bioassay; type: cell-based, Human; settings: FIG. 6
[4] = system: colonic adenomas in Apc^+/Min-FCCC mice; assay: Ex-vivo imaging of excised colons incubated with probe (IVIS Spectrum); settings: 0.1 μM probe; for signal / ability to detect polyps in older mice: 4 and 6 month old mice
Experimental: Ex-vivo and in vivo studies have been performed to evaluate the specificity of the IR680-SP-333 probe for colonic adenomas in Apc^+/Min-FCCC mice. IR680-SP-333 was prepared in DMEM/F-12 media containing 20 mM sodium phosphate buffer and 3% BSA, pH6; the same media used for in vitro experiments. Based on data from an initial pilot study, incubation of tissue with 0.1 μM IR680-SP-333 for 30 min at 37° C. was selected as the optimal condition for ex-vivo studies. Epifluorescence images were acquired as follows: excitation wavelength=640 nm, detection wavelength=700 nm, exposure time=auto-3 min, F-stop=1, binning=1 (“small” setting), field of view=0.3 cm (setting “C”). […] To eliminate the contribution of the age of mouse to the observed heterogeneity in probe binding, an in depth imaging study was performed in mice of various ages (2, 3, 4, 5 and 6 months). In this ex-vivo study, mice were euthanized and colons excised, opened longitudinally, and washed with PBS. Colon tissues were incubated with 0.1 μM IR680-SP-333 at 37° C. for 30 min. After incubation, the tissues were washed with PBS (4 times) and imaged in the IVIS Spectrum, using the settings described above. Careful review of the resulting images lead to three major conclusions: 1) the binding of the IR680-SP-333 probe to colorectal polyps is size dependent. […] 2) because the signal varied with polyp size, binding was enhanced in mice 2-3 months of age where the majority of colorectal polyps were smaller (≤3 mm in diameter) (FIG. 7). As the mice aged, the colorectal polyps increased in size and the ability of probe to detect the polyps decreased (FIG. 8). […] Because the incidence of colorectal polyps is higher in mice 3 months (70%) vs. 2 months (45%) of age, a decision was made to use mice 10-12 weeks of age for all subsequent in vivo IR680-SP-333 analyses to minimize the number of animal that needed to be screened for tumors. 3) signal of the IR680-SP-333 probe was high at the proximal and distal ends of the colon even in the absence of polyps. Similar nonspecific binding of unknown origin has been observed in previous experiments with independent probes at these same extreme regions.

[5] = system: colon polyps in Apc^+/Min-FCCC mice; assay: In vivo gavage of probe, imaging of excised colon and histopathology
Experimental: Following the ex-vivo binding studies, an experiment was performed to assess the ability of the probe to remain intact as it passed through the GI tract and bind to colonic lesions. In this in vivo experiment, Apc^+/Min-FCCC mice (10-12 wks of age) were subjected to a colonoscopic examination prior to probe administration, according to a protocol established previously (Hensley, Gastrointestinal Endoscopy group). Mice with confirmed colon polyps were randomized to receive IR680-SP-333 at 0.5 or 0.05 mg/kg body weight by gavage. Prior to probe administration, mice were fasted overnight and provided Pedialyte ad libitum for bowel cleansing. Mice were gavaged with IR680-SP-333 and euthanized at 30, 60, 90 and 120 min post treatment. At the time of euthanasia, the colon was excised, opened its entire length and rinsed with saline. Each colon was then placed on a plastic ruler and imaged in an IVIS Spectrum system using the settings described above for the ex-vivo experiments. Immediately following image acquisition, the entire colon was placed intact on a plastic ruler in 10% normal buffered formalin and areas positive and negative for probe signal were collected for histopathological evaluation. […] Evaluation of additional doses of IR680-SP-333 probe (0.0158 and 0.158 mg/kg body weight) confirmed that gavaging mice with IR680-SP-333 at 0.05 mg/kg body weight and imaging 30 min post treatment yielded the greatest differential in signal between the non-neoplastic and neoplastic colonic mucosa.
Colon tissues with strong signal (tumor) and corresponding background signal (nonneoplastic control) were processed for histopathology evaluation and reviewed bin a blinded manner. […] This heterogeneity made it impossible to standardize the epi-fluorescence scale and classify positive and negative signals based solely on the epi-fluorescence value. […] In FIG. 12 (mouse ID 12201), strong signal is localized to a hyperplastic polyp (HP); an area of high proliferation; providing additional support for the lack of correlation between the intensity of the probe signal and size/type of colonic lesion. […] The probe IR-680-SP-333 may also be useful in detection of colorectal metastasis in liver and other organs.

GC-C receptor = GC-C receptor (Homo sapiens, UniProt P25092); settings: cited from earlier work
Sequence of GC-C receptor (P25092 24-1073): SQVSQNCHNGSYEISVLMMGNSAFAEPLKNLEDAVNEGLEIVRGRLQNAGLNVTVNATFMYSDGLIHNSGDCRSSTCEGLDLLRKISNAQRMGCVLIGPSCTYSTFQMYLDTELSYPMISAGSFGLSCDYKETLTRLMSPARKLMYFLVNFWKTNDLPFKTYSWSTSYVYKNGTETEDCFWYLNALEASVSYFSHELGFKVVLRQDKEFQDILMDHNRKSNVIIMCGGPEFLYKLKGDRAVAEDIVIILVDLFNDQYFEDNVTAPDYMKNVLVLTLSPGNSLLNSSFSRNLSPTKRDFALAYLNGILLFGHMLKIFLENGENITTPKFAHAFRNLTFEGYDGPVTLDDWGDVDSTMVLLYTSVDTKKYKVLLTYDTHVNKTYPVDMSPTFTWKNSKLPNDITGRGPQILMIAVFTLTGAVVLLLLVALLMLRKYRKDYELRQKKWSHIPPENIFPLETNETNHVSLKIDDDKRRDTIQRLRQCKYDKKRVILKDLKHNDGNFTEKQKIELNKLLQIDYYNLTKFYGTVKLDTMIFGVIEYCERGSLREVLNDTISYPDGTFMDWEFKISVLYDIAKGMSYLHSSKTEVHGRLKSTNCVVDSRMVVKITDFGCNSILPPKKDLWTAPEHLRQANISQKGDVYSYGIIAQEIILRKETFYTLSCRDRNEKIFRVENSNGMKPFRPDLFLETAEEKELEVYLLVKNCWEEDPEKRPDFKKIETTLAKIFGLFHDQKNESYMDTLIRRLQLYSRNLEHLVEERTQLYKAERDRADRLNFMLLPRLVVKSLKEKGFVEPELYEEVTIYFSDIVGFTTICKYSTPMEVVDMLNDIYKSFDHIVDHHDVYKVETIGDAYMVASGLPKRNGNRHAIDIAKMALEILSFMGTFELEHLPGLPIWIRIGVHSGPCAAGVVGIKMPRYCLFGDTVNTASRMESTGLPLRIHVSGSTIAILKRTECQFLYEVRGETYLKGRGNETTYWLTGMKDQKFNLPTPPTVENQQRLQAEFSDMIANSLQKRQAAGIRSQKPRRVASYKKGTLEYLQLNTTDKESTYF

T1 sequence (P25092 24-1073): as above
T2 sequence (P25092 24-1073): as above

In the case of “IR680-SP-333: SP-333 labeled at the amine group with IRDye-680LT NHS ester; bioactive infrared fluorescence probe ({IRDye‑680LT}-[dN]DECELCVNVACTGC[dL]; disulfide 4-12, 7-15)”, the “binding of probe in the presence of 100-fold excess of unlabeled SP-333” value [1] is reported as “considerably reduced”, the “binding of probe to T84 cells (fluorescence ex680, em715)” value [1] is reported as “specifically bound to GC-C expressed on T84 cells in a dose-dependent manner” and the “binding of probe to cell suspension in the presence of 100-fold excess of SP-333” value [2] is reported as “abolished”. The “ability to stimulate cGMP production in T84 cells” value [3] was “active”, the “level of cGMP production compared to unconjugated SP-333” value [3] was “slightly lower level” and the “signal at the proximal and distal ends of the colon in the absence of polyps” value ([4]; 30 min) was “high”. The “signal / ability to detect polyps in older mice” value ([4]; 30 min, FIG. 8) was “decreased”, the “signal / ability to detect polyps in older mice” value ([4]; 30 min, FIG. 8, listed as SP-333-IR680) was “weaker than that observed in younger animals” and the “binding in mice 2-3 months of age” value ([4]; 30 min, polyps mostly ≤3 mm, FIG. 7) was “enhanced”. The “binding to colorectal polyps versus surrounding normal colonic mucosa” value ([4]; 30 min at 37° C.) was “greater binding to colorectal polyps than to the surrounding normal colonic mucosa”, the “binding to every colorectal polyp” value ([4]; 30 min at 37° C.) was “did not bind to every colorectal polyp” and the “probe signal by polyp size” value ([4]; 30 min at 37° C., FIG. 7) was “higher in polyps ≤3 mm in diameter than in those with a diameter >4 mm”. The “differential between signal of colorectal polyps and background of adjacent normal colonic mucosa” value ([5]; gavage 0.05 mg/kg body weight, imaged 30 min post treatment, FIG. 9A) was “best differential”, the “nonspecific signal at proximal and distal ends of colon” value ([5]; gavage 0.5 mg/kg body weight, FIG. 9B) was “increased significantly” and the “differential between tumor and normal tissue at higher dose” value ([5]; gavage 0.5 mg/kg body weight, FIG. 9B, 0.5 mg/kg) was “failed to improve the difference in signal between neoplastic and nonneoplastic mucosa significantly”. The “differential between tumor and normal tissue at higher dose” value ([5]; gavage 0.5 mg/kg body weight, FIG. 9B, listed as SP-333-IR680, 0.5 mg/kg) was “failed to improve the differential between tumor and normal tissue”, the “nonspecific binding at longer interval between dosing and imaging” value ([5]; gavage, ≥90 min between dosing and imaging, FIG. 9C) was “increase in nonspecific binding” and the “correlation of probe signal intensity with tumor size or histological subtype” value ([5]; histopathology, blinded review) was “did not correlate with either tumor size or the histological subtype of lesion”. The “probe signal in hyperplastic polyp (HP)” value ([5]; mouse ID 12201, FIG. 12) was “strong signal”, the “probe signal in flat/indeterminate adenoma” value ([5]; mouse ID 12276, FIG. 11) was “weaker signal” and the “probe signal in small gross lesion (1-mm in size)” value ([5]; mouse ID 12276, FIG. 11) was “very strong probe signal”. For the same substance, the “probe signal in adenoma” value ([5]; mouse ID 12281, FIG. 10) was “intermediate signal intensity”, the “probe signal in areas of hyperproliferation (HP)” value ([5]; mouse ID 12281, FIG. 10) was “strongest probe signal” and the “probe signal in micro-adenoma compared to surrounding normal colonic mucosa” value ([5]; mouse ID 12281, FIG. 10) was “slight increase in signal”. For the same substance, the “background signal in normal colonic mucosa” value ([5]; same dose and same post treatment time interval) was “varied between mice receiving the same treatment regimen”.
For “Asn^1-Asp^2-Asp^3-Cys^4-Glu^5-Leu^6-Cys^7-Val^8-Asn^9-Val^10-Ala^11-Cys^12-Thr^13-Gly^14-Cys^15-Leu^16 (NDDCELCVNVACTGCL; disulfide 4-12, 7-15) [Uroguanylin, a physiological ligand of GC-C, a 16 amino acid peptide with two disulfide bonds]”, the “affinity for the GC-C receptor” value (GC-C receptor) is given as “nanomolar affinity”.
